From US9023852B2, “1, 2, 4-thiadiazol-5-ylpiperazine derivatives useful in the treatment of neurodegenerative diseases” (Remynd NV, priority 2011, dated 2015)
pEC50: −log10 of the molar value.

Columns and labels:
[1] = Microsomal stability assay (intrinsic clearance), human liver microsomes; format: in vitro ADME; conditions: human in vitro microsomes, first value of Hum/Rat pair
Procedure: (§1) Microsomal Stability Testing—Assay Description
(§2) The microsomal stability assay measures the rate of disappearance of a test compound from an incubation containing human or animal liver microsomes and metabolic cofactors (typically NADPH). The assay is primarily used for ranking the relative CYP-mediated metabolism propensities of compounds within a chemical series and as a guide to selecting sufficiently stable compounds for pharmacokinetics and pharmacodynamics experiments. [In addition to CYPs, microsomally located enzymes which also make use of NADPH (such as […]) and those which require no cofactors (such as carboxylesterases) are active.]
(§3) Incubations are performed in 96-well deep-well plates with a final incubation volume of 600 μL. Incubations contain (finally) 1-2 μM test compound, 0.5 mg/mL liver microsomes (typically human, rat or mouse) and NADPH regenerating system. 50 μL aliquots are removed after 1, 3, 6, 9, 15, 25, 35 and 45 minutes and quenched in 150 μL acetonitrile containing internal standard. Samples are then cooled and centrifuged before analysis by LC-MS/MS.
(§4) Log peak area ratio (test compound peak area/internal standard peak area) is plotted against incubation time and a linear fit made to the data with emphasis upon the initial rate of compound disappearance. The slope of the fit is then used to calculate the intrinsic clearance: Clint(μL/min/mg)=−slope(min^−1)*1000/[protein concentration (mg/mL)]

[2] = Microsomal stability assay (intrinsic clearance), rat liver microsomes; format: in vitro ADME; conditions: rat in vitro microsomes, second value of Hum/Rat pair
Procedure: as §1, §2, §3, §4

[3] = tested on: M17—3TAU(P301L) cells; assay: Neuroblastoma tauopathy model: inhibition of TAU-induced cytotoxicity (LDH); format: cell-based; conditions: Homo sapiens, 168 h; inhibition of TAU-induced toxicity (LDH), 7 days differentiation with retinoic acid
Summary of the method: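 BE-M17 neuroblastoma cells stably expressing human TAU-P301L, differentiated with RA (2.5 μM in added medium) for 7 days at 37 °C with compounds at a range of concentrations. Cytotoxicity as supernatant LDH over total LDH (Cytotox 96); EC50 from dose-dependent inhibition curve.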

| Compound | microsomal CLint [1] | microsomal CLint [2] | pEC50 [3] |
| --- | --- | --- | --- |
| O=S(=O)(c1ccc(OC(F)(F)F)cc1)N1CCN(c2nc(Cc3ccc(F)cc3)ns2)CC1 [reference compound] | 46 µL/min/mg | 103 µL/min/mg | – |
| Cc1ccc(-c2nsc(N3CCN(Cc4ccc5c(c4)OCO5)CC3)n2)cc1 [Example 2, 1-Benzo[1,3]dioxol-5-ylmethyl-4-(3-p-tolyl-[1,2,4]thiadiazol-5-yl)-piperazine] | 19 µL/min/mg | 48 µL/min/mg | 6.23 |
| Fc1ccc(Cc2nsc(N3CCN(Cc4ccc5c(c4)OCO5)CC3)n2)cc1 [reference compound] | 39 µL/min/mg | 482 µL/min/mg | – |
| Fc1cccc(-c2nsc(N3CCN(CCc4ccc(Cl)cc4)CC3)n2)c1 [Example 88, 1-[2-(4-Chloro-phenyl)-ethyl]-4-[3-(3-fluoro-phenyl)-[1,2,4]thiadiazol-5-yl]-piperazine] | 12 µL/min/mg | 23 µL/min/mg | 6.92 |
| Cc1cc(-c2nsc(N3CCN(CCc4ccccc4)CC3)n2)ccn1 [Example 171, 3-(2-methylpyridin-4-yl)-5-(4-phenethylpiperazin-1-yl)-1,2,4-thiadiazole] | – | – | 8.62 |
| COc1ccc(CCN2CCN(c3nc(-c4cnccn4)ns3)CC2)cc1 [Example 76, 2-(5-{4-[2-(4-Methoxy-phenyl)-ethyl]-piperazin-1-yl}-[1,2,4]thiadiazol-3-yl)-pyrazine] | – | – | 7.39 |
| CC(C)Oc1ccc(CCN2CCN(c3nc(-c4ccc(Cl)cc4)ns3)CC2)cc1 [Example 71, 1-[3-(4-Chloro-phenyl)-[1,2,4]thiadiazol-5-yl]-4-[2-(4-isopropoxy-phenyl)-ethyl]-piperazine] | – | – | 6.37 |
| COc1cccc(CCN2CCN(c3nc(-c4ccccc4Cl)ns3)CC2)c1 [Example 57, 1-[3-(2-Chloro-phenyl)-[1,2,4]thiadiazol-5-yl]-4-[2-(3-methoxy-phenyl)-ethyl]-piperazine] | – | – | 7.84 |
| COc1ccc(CCN2CCN(c3nc(-c4ccc(F)cc4)ns3)CC2)cc1 [Example 47, 1-[3-(4-Fluoro-phenyl)-[1,2,4]thiadiazol-5-yl]-4-[2-(4-methoxy-phenyl)-ethyl]-piperazine] | – | – | 9.40 |
| COc1cccc(CCN2CCN(c3nc(-c4ccc(Cl)cc4)ns3)CC2)c1 [Example 14, 1-[3-(4-Chloro-phenyl)-[1,2,4]thiadiazol-5-yl]-4-[2-(3-methoxy-phenyl)-ethyl]-piperazine] | – | – | 8.32 |
| COc1cc(CCN2CCN(c3nc(-c4cccc(Cl)c4)ns3)CC2)ccn1 [Example 89, 1-[3-(3-Chloro-phenyl)-[1,2,4]thiadiazol-5-yl]-4-[2-(2-methoxy-pyridin-4-yl)-ethyl]-piperazine] | – | – | 8.80 |
| Cc1ccc(-c2nsc(N3CCN(CCc4ccc(F)cc4)CC3)n2)cn1 [Example 96, 1-[2-(4-Fluoro-phenyl)-ethyl]-4-[3-(6-methyl-pyridin-3-yl)-[1,2,4]thiadiazol-5-yl]-piperazine] | – | – | 7.55 |
| COc1ccc(CCN2CCN(c3nc(-c4cccc(C#N)c4)ns3)CC2)cn1 [Example 115, 3-(5-{4-[2-(6-Methoxy-pyridin-3-yl)-ethyl]-piperazin-1-yl}-[1,2,4]thiadiazol-3-yl)-benzonitrile] | – | – | 8.64 |
| COc1cccc(CCN2CCN(c3nc(-c4ccc(C(F)(F)F)nc4)ns3)CC2)c1 [Example 30, 1-[2-(3-Methoxy-phenyl)-ethyl]-4-[3-(6-trifluoromethyl-pyridin-3-yl)-[1,2,4]thiadiazol-5-yl]-piperazine] | – | – | 6.83 |
| COc1cc(CCN2CCN(c3nc(-c4cccc(C#N)c4)ns3)CC2)ccn1 [Example 117, 3-(5-{4-[2-(2-Methoxy-pyridin-4-yl)-ethyl]-piperazin-1-yl}-[1,2,4]thiadiazol-3-yl)-benzonitrile] | – | – | 8.24 |
| COc1ccc(CCN2CCN(c3nc(-c4cccc(F)c4)ns3)CC2)cn1 [Example 100, 1-[3-(3-Fluoro-phenyl)-[1,2,4]thiadiazol-5-yl]-4-[2-(6-methoxy-pyridin-3-yl)-ethyl]-piperazine] | – | – | 8.37 |
| COc1ccc(CCN2CCN(c3nc(-c4cccc(Cl)c4)ns3)CC2)cc1 [Example 41, 1-[3-(3-Chloro-phenyl)-[1,2,4]thiadiazol-5-yl]-4-[2-(4-methoxy-phenyl)-ethyl]-piperazine] | – | – | 9.15 |
| Fc1ccc(CCN2CCN(c3nc(-c4ccc(Cl)cc4)ns3)CC2)cc1 [Example 24, 1-[3-(4-Chloro-phenyl)-[1,2,4]thiadiazol-5-yl]-4-[2-(4-fluoro-phenyl)-ethyl]-piperazine] | – | – | 9.15 |
| Cc1ccc(-c2nsc(N3CCN(CCc4ccc(Cl)c(Cl)c4)CC3)n2)cc1 [Example 5, 1-[2-(3,4-Dichloro-phenyl)-ethyl]-4-(3-p-tolyl-[1,2,4]thiadiazol-5-yl)-piperazine] | – | – | 6.40 |
| Fc1ccc(CCN2CCN(c3nc(-c4cc(Cl)ccn4)ns3)CC2)cc1F [Example 157, 3-(4-chloropyridin-2-yl)-5-(4-(3,4-difluorophenethyl)piperazin-1-yl)-1,2,4-thiadiazole] | – | – | 7.54 |
